Measured values reported in patent publication US9199946B2, “Pyrimidinone carboxamide inhibitors of endothelial lipase” (BRISTOL-MYERS SQUIBB COMPANY, priority 2012, dated 2015).

Each compound was assayed against T1, Endothelial lipase (EL) (Homo sapiens, UniProt Q9Y5X9) (assay: Endothelial lipase (EL) enzymatic assay with fluorescent substrate A10070 in DMPG vesicles). Conditions: conditioned media from HT-1080 cells overexpressing endogenous EL; 20 min preincubation at 37° C.; read-out: EL IC50.
T1 construct: HT-1080 cells, which were transformed by RAGE technology (Athersys) to overexpress endogenous EL; endogenous in cells; conditioned medium used as the enzyme source
T1 sequence (Q9Y5X9 21-500): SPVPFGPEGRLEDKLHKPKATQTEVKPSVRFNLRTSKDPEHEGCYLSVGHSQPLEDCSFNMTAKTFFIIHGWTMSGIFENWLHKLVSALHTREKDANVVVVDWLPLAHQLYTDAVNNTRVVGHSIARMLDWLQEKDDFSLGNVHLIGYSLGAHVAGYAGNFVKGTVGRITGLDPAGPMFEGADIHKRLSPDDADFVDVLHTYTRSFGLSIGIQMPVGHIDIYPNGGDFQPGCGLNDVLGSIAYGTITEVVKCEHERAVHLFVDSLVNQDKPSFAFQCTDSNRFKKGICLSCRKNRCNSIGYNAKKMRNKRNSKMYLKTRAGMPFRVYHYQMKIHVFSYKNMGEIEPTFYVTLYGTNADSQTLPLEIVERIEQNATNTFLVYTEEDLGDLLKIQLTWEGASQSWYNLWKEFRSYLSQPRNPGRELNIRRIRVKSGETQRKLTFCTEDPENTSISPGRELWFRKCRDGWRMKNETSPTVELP
Type: biochemical
How it was run: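 EL activity was followed as a fluorescence rate (488/530 nm, reads every 20 s for 10 min, linear slope) on A10070 doped at 0.05 mole fraction into sonicated DMPG vesicles. Compound was first incubated 20 min at 37 °C, pH 8.0 HEPES/CaCl2 buffer, with conditioned media from EL-overexpressing HT-1080 cells.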

Row | IC50 [µM] | Structure (SMILES)
1 | 0.496 | Nc1c(C(=O)N[C@@H]2CC[C@H](c3ccc(-c4cccc5ncccc45)cc3)C2)[nH]c(=O)[nH]c1=O [Example 175, 5-amino-2,6-dioxo-N-((1R,3S)-3-(4-(quinolin-5-yl)phenyl)cyclopentyl)-1,2,3,6-tetrahydropyrimidine-4-carboxamide]
2 | 9.86 | Nc1c(C(=O)NC2CCN(C(=O)Nc3ccc(C(F)(F)F)cc3)c3ccccc32)[nH]c(=O)[nH]c1=O (stereo not drawn) [Example 26, 4-(5-amino-2,6-dioxo-1,2,3,6-tetrahydropyrimidine-4-carboxamido)-N-(4-(trifluoromethyl)phenyl)-3,4-dihydroquinoline-1(2H)-carboxamide]
3 | 22.2 | COc1ccc2c(c1)C(NC(=O)c1[nH]c(=O)[nH]c(=O)c1N)CC2 (single isomer, unassigned) [Example 72, 5-amino-N-(6-methoxy-2,3-dihydro-1H-inden-1-yl)-2,6-dioxo-1,2,3,6-tetrahydropyrimidine-4-carboxamide]

Same assay, conditions: range observed in the EL assay; read-out: EL IC50 values

Row | IC50 [µM] | Structure (SMILES)
4 | ≤ 10 | Nc1c(C(=O)N[C@@H]2CC[C@H](c3ccc(-c4cccc5ncccc45)cc3)C2)[nH]c(=O)[nH]c1=O [Example 175, 5-amino-2,6-dioxo-N-((1R,3S)-3-(4-(quinolin-5-yl)phenyl)cyclopentyl)-1,2,3,6-tetrahydropyrimidine-4-carboxamide]
5 | ≤ 10 | Nc1c(C(=O)NC2CCC(n3cc(-c4ccc(Br)cc4)cn3)C2)[nH]c(=O)[nH]c1=O (stereo not drawn) [Example 140, 5-amino-N-(3-(4-(4-bromophenyl)-1H-pyrazol-1-yl)cyclopentyl)-2,6-dioxo-1,2,3,6-tetrahydropyrimidine-4-carboxamide]
6 | ≤ 10 | Nc1c(C(=O)N[C@H]2CC[C@@H](OCc3ccccc3)CC2)[nH]c(=O)[nH]c1=O [Example 95, 5-amino-N-(cis-4-(benzyloxy)cyclohexyl)-2,6-dioxo-1,2,3,6-tetrahydropyrimidine-4-carboxamide]
7 | ≤ 10 | Nc1c(C(=O)N[C@H]2CCCc3c(OCC(F)(F)F)cccc32)[nH]c(=O)[nH]c1=O [Example 35, (S)-5-amino-2,6-dioxo-N-(5-(2,2,2-trifluoroethoxy)-1,2,3,4-tetrahydronaphthalen-1-yl)-1,2,3,6-tetrahydropyrimidine-4-carboxamide]
8 | ≤ 10 | O=C(N[C@H]1CC[C@@H](c2ccccc2)CC1)c1[nH]c(=O)[nH]c(=O)c1NCc1cccc(C(F)(F)F)c1 [Example 222, 2,6-dioxo-N-(cis-4-phenylcyclohexyl)-5-(3-(trifluoromethyl)benzylamino)-1,2,3,6-tetrahydropyrimidine-4-carboxamide]
9 | ≤ 10 | CC(C)(C)COc1ccc(C2CCC(NC(=O)c3[nH]c(=O)[nH]c(=O)c3N)C2)cc1 (stereo not drawn) [Example 143, 5-amino-N-(3-(4-(neopentyloxy)phenyl)cyclopentyl)-2,6-dioxo-1,2,3,6-tetrahydropyrimidine-4-carboxamide]
10 | ≤ 10 | Nc1c(C(=O)N[C@@H]2CCCc3c(Oc4ccccc4)cccc32)[nH]c(=O)[nH]c1=O [Example 84, (R)-5-amino-2,6-dioxo-N-(5-phenoxy-1,2,3,4-tetrahydronaphthalen-1-yl)-1,2,3,6-tetrahydropyrimidine-4-carboxamide]
11 | ≤ 10 | Nc1c(C(=O)N[C@@H]2CC[C@@H](c3ccccc3)C2)[nH]c(=O)[nH]c1=O [Example 77, 5-amino-2,6-dioxo-N-((1R,3R)-3-phenylcyclopentyl)-1,2,3,6-tetrahydropyrimidine-4-carboxamide]
12 | ≤ 10 | Nc1c(C(=O)N[C@@H]2CC(c3ccccc3)c3ccccc32)[nH]c(=O)[nH]c1=O (stereo in doubt) [Example 29, 5-amino-2,6-dioxo-N-((1R,3S)-3-phenyl-2,3-dihydro-1H-inden-1-yl)-1,2,3,6-tetrahydropyrimidine-4-carboxamide]
13 | ≤ 10 | Nc1c(C(=O)NC2CCN(c3ccccc3)C2)[nH]c(=O)[nH]c1=O (stereo not drawn) [Example 182, 5-amino-2,6-dioxo-N-(1-phenylpyrrolidin-3-yl)-1,2,3,6-tetrahydropyrimidine-4-carboxamide]
14 | ≤ 10 | Nc1c(C(=O)NC2CCN(C(=O)Nc3ccc(C(F)(F)F)cc3)c3ccccc32)[nH]c(=O)[nH]c1=O (stereo not drawn) [Example 26, 4-(5-amino-2,6-dioxo-1,2,3,6-tetrahydropyrimidine-4-carboxamido)-N-(4-(trifluoromethyl)phenyl)-3,4-dihydroquinoline-1(2H)-carboxamide]
15 | ≤ 10 | COCCNc1c(C(=O)N[C@H]2CC[C@@H](c3ccccc3)CC2)[nH]c(=O)[nH]c1=O [Example 214, 5-(2-methoxyethylamino)-2,6-dioxo-N-(cis-4-phenylcyclohexyl)-1,2,3,6-tetrahydropyrimidine-4-carboxamide]
